Laboratory results reported in PMC10124317 (Biochemistry, 2023).

Biological target: HDAC1 (Homo sapiens, UniProt Q13547)
Settings: HDAC1 0.1 μM preincubated 10 min with 5 μM TSA, then 1b or 2b

HDAC1, sequence (Q13547 whole entry): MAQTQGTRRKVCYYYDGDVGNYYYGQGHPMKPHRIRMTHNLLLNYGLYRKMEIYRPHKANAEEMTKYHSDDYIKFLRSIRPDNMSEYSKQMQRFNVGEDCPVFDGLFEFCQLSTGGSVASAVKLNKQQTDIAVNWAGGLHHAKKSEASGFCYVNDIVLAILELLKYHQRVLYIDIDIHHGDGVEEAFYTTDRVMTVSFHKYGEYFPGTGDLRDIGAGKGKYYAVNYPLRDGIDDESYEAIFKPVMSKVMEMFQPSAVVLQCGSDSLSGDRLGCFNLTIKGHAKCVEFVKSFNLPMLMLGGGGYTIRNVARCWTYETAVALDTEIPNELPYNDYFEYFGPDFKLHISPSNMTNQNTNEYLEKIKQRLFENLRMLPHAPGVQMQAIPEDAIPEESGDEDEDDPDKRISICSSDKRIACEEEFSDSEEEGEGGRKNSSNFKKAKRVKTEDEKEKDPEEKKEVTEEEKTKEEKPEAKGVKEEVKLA

- covalent modification of HDAC1 remaining after preincubation with TSA: ~ 10%
Substance: trichostatin A [TSA]
